For one test, the target named is T1, HDAC7 (Homo sapiens, UniProt Q8WUI4).
T1 sequence (Q8WUI4 1-952): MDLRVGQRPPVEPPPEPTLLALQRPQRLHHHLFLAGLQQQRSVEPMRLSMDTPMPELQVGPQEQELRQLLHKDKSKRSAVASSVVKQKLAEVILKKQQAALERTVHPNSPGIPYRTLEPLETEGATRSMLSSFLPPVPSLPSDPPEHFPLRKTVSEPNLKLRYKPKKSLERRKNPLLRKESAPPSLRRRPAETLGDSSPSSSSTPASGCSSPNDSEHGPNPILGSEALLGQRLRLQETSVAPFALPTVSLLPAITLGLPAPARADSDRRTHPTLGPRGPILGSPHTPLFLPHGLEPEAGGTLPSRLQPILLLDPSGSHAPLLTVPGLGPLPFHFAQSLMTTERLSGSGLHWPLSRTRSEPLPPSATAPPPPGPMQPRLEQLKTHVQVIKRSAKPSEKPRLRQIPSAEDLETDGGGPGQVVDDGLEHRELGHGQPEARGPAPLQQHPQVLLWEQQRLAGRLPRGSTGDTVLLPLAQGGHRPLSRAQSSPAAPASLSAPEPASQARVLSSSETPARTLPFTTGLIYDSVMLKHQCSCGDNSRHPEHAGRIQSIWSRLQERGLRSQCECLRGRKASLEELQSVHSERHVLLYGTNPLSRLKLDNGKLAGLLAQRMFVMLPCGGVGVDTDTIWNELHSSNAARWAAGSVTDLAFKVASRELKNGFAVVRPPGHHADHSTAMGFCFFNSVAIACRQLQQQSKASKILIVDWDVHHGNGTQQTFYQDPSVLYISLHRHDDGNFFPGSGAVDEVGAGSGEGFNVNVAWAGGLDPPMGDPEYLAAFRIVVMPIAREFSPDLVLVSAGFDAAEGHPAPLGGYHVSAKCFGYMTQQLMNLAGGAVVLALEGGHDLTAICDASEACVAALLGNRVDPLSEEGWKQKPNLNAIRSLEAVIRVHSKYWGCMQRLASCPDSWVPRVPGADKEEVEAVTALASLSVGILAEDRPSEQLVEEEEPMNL
Kind of test: HDAC biochemical activity measurement (fluorescent substrate deacetylation).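 Note: fluorogenic deacetylation assay using acetyl-lysine substrate at 20 µM, enzyme and compound incubated 30 min at 37 °C, then developer added, fluorescence read at 360/460 nm.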 Conditions: HDAC7; 37° C. 30 minutes.

Test [1] concerns A549 (human lung cancer cells). Kind of test: MTT cancer cell growth inhibition. Format: cell-based. The settings on record: Homo sapiens, A549, 72 h, MTT, 72 hours incubation, read-out: GI50 A54. Put shortly:
(§1)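 MTT viability, 570 nm, GI50. Cells 1500/well; compound 72 h at final 10^−5–10^−10 M in triplicate.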

Test [2] deals with BGC-823 (human gastric cancer cells). Kind of test: MTT cancer cell growth inhibition. Format: cell-based. Conditions: Homo sapiens, BGC-823, 72 h, MTT, 72 hours incubation, read-out: GI50 BG. The method in brief:
as §1

Test [3] concerns Bel-7402 (human hepatoma cells). Kind of test: MTT cancer cell growth inhibition. Format: cell-based. The settings on record: Homo sapiens, Bel-7402, 72 h, MTT, 72 hours incubation, Bel-7402 cells; read-out: GI50 Bel-7402. The method in brief:
as §1

Test [4] concerns DU145 (human prostate cancer cells). Kind of test: MTT cancer cell growth inhibition. Format: cell-based. Conditions: Homo sapiens, DU-145, 72 h, MTT, 72 hours incubation, read-out: GI50 Du1. The method in brief:
as §1

Test [5] relates to H1975 (non-small cell lung adenocarcinoma). The experiment in a line: MTT cancer cell growth inhibition. Format: cell-based. Conditions: Homo sapiens, NCI-H1975, 72 h, MTT, 72 hours incubation, H1975 cells; read-out: GI50 H1975. The method in brief:
as §1

For test [6], the system named is HCC827 (human non-small cell lung cancer cells). Kind of test: MTT cancer cell growth inhibition. Format: cell-based. The settings on record: Homo sapiens, HCC827, 72 h, MTT, 72 hours incubation, HCC827 cells; read-out: GI50 HCC827. The method in brief:
as §1

For test [7], the system named is HT1080 (human fibrosarcoma cells). The experiment in a line: MTT cancer cell growth inhibition. Format: cell-based. Conditions: Homo sapiens, HT-1080, 72 h, MTT, 72 hours incubation, read-out: GI50 HT1. The method in brief: as §1
Test [8] relates to Hela (human cervical cancer cells). The experiment in a line: MTT cancer cell growth inhibition. Format: cell-based. Conditions: Homo sapiens, HeLa, 72 h, MTT, 72 hours incubation, read-out: GI50 Hela. Put shortly:
as §1

In test [9] the test system is Huh-7 (human hepatoma cells). The experiment in a line: MTT cancer cell growth inhibition. Format: cell-based. The settings on record: Homo sapiens, Huh-7, 72 h, MTT, 72 hours incubation, Huh-7 cells; read-out: GI50 Huh-7. Put shortly: as §1
Test [10] relates to K562 (human leukemia cells). The experiment in a line: MTT cancer cell growth inhibition. Format: cell-based. The settings on record: Homo sapiens, K562, 72 h, MTT, 72 hours incubation, K562 cells; read-out: GI50 K562. The method in brief:
as §1

The test system of test [11] is KBM-5 (human chronic myelogenous leukemia). Kind of test: MTT cancer cell growth inhibition. Format: cell-based. Conditions: Homo sapiens, KBM5, 72 h, MTT, 72 hours incubation, KBM-5 cells; read-out: GI50 KBM-5. The method in brief:
as §1

Test [12] deals with KBM5-T315I (human chronic myelogenous leukemia). The experiment in a line: MTT cancer cell growth inhibition. Conditions: Homo sapiens, 72 h, MTT, 72 hours incubation, KBM5-T315I cells; read-out: GI50 KBM5-T315I. Format: cell-based. The method in brief:
as §1

Test [13] relates to MCF-7 (human breast cancer cells). The experiment in a line: MTT cancer cell growth inhibition. Format: cell-based. Conditions: Homo sapiens, MCF7, 72 h, 72 hours incubation, read-out: GI50 MCF. Put shortly: as §1
Test [14] concerns MDA-MB-231 (breast cancer cells). The experiment in a line: MTT cancer cell growth inhibition. Format: cell-based. The settings on record: Homo sapiens, MDA-MB-231, 72 h, read-out: GI50 MDA-MB-231, MTT, 72 hours incubation, MDA-MB-231 cells. Put shortly: as §1
For test [15], the system named is MOLT-4 (human acute lymphoblastic leukemia cells). Kind of test: MTT cancer cell growth inhibition. Format: cell-based. Conditions: Homo sapiens, MOLT-4, 72 h, MTT, 72 hours incubation, read-out: GI50 Mol. The method in brief:
as §1

In test [16] the test system is N-87 (human gastric cancer cells). Kind of test: MTT cancer cell growth inhibition. Conditions: Homo sapiens, 72 h, MTT, 72 hours incubation, N-87 cells; read-out: GI50 N-87. Format: cell-based. Put shortly: as §1
Test [17] deals with PANC-1 (Pac-1, human pancreatic cancer cells). Kind of test: MTT cancer cell growth inhibition. Format: cell-based. The settings on record: Homo sapiens, PANC-1, 72 h, MTT, 72 hours incubation, read-out: GI50 PAN. The method in brief: as §1
The test system of test [18] is SGC-7901 (human gastric cancer cells). The experiment in a line: MTT cancer cell growth inhibition. Format: cell-based. Conditions: Homo sapiens, SGC-7901, 72 h, MTT, 72 hours incubation, SGC-7901 cells; read-out: GI50 SGC-7901. Put shortly: as §1
In test [19] the test system is U937 (human leukemia cells). The experiment in a line: MTT cancer cell growth inhibition. Format: cell-based. Conditions: Homo sapiens, U-937, 72 h, MTT, 72 hours incubation, read-out: GI50 U93. Put shortly:
as §1

Test [20] relates to lncap (prostate cancer cells). The experiment in a line: MTT cancer cell growth inhibition. Format: cell-based. Conditions: Homo sapiens, LNCaP, 72 h, MTT, 72 hours incubation, read-out: GI50 lnca. The method in brief:
as §1

Each structure is given as a SMILES string. Read-outs that look alike come from different tables or passages of the source.

The text below walks through data of patent US10065990B2, “Cyclic peptide compound, and preparation method, pharmaceutical composition and use thereof” (HANGZHOU GUANYU BIO-MEDICAL CO., LTD, priority 2013, dated 2018).

With `C/C=C1\NC(=O)c2cc(SC)cc(n2)CNC(=O)C[C@@H](/C=C/CCSC(C)=O)OC(=O)[C@H](CCCCNC(=O)OCC2c3ccccc3-c3ccccc32)NC1=O` [Compound 196], the “IC50 HDAC7” value against HDAC7 is reported as “no activity”. The concentration for 50% growth inhibition (GI50) in test [1] (A549 cells) came out at 20 nM; in [2] (BGC-823 cells), 50 nM; in test [3], 89 nM; in [4] (DU145 cells) it was 130 nM; in [5], 62 nM; in [6] it was 64 nM. Besides, the GI50 stood at 70 nM in test [7] (HT1080 cells); 80 nM in test [8] (Hela cells); 23 nM in test [9]; 58 nM in test [10]; 28 nM in [11]; 93 nM in test [12]. Moreover, the GI50 in test [13] (MCF-7 cells) is 60 nM; in test [14], 85 nM; in [15] (MOLT-4 cells), 30 nM; in test [16], 56 nM; in test [17] (PANC-1 cells), 60 nM; in test [18] it was 45 nM. The GI50 in test [19] (U937 cells) and in test [20] (lncap cells) was 60 nM throughout.
Regarding `C/C=C1\NC(=O)c2nc(F)cc(n2)CNC(=O)C[C@@H](/C=C/CCSC(C)=O)OC(=O)[C@H](C(C)C)NC1=O` [Compound 96], at HDAC7, the “IC50 HDAC7” value is “no activity”. In addition, the 50% growth inhibitory concentration (GI50) in test [1] came out at 40 nM; in test [2], 20 nM; in test [3], 61 nM; in [4] it was 20 nM; in test [5] it was 73 nM; in test [6], 65 nM. Further, the GI50 in [7] came to 40 nM; in test [8] it was 60 nM; in [9], 48 nM; in [10] it was 19 nM; in test [11] it was 72 nM; in [12], 54 nM. The GI50 in test [13] was determined as 20 nM; in test [14], 57 nM; in test [15], 30 nM; in [16], 27 nM; in test [17], 40 nM; in test [18], 37 nM. In addition, the GI50 in test [19] worked out at 20 nM; in [20], 30 nM.
For `C/C=C1\NC(=O)c2cc(SC)cc(n2)CNC(=O)C[C@@H](/C=C/CCSC(=O)CCCC)OC(=O)[C@H](C(C)C)NC1=O` [Compound 157], the “IC50 HDAC7” value at HDAC7 was “no activity”. For the same compound, the concentration for 50% growth inhibition (GI50) in [1] (A549 cells) was 20 nM; in test [2] (BGC-823 cells), 30 nM; in [3], 83 nM; in [4] (DU145 cells), 70 nM; in [5], 35 nM; in test [6] it was 37 nM. Further, the GI50 in test [7] (HT1080 cells) was 90 nM; in [8] (Hela cells) it was 70 nM; in test [9] it was 29 nM; in test [10], 23 nM; in [11], 36 nM; in test [12], 23 nM. The GI50 in test [13] (MCF-7 cells) amounted to 20 nM; in test [14], 26 nM; in [15] (MOLT-4 cells) it was 20 nM; in test [16], 36 nM; in test [17] (PANC-1 cells), 20 nM; in [18], 72 nM. The values for the GI50 in test [19] (U937 cells) and in test [20] (lncap cells) were 20 nM and 50 nM, respectively.
As for `C/C=C1\NC(=O)c2nc(ccc2SC)CNC(=O)C[C@@H](/C=C/CCSC(=O)CCCC)OC(=O)[C@H](C(C)C)NC1=O` [Compound 156], on HDAC7, the “IC50 HDAC7” value is reported as “no activity”. Further, the GI50 in test [1] (A549 cells) was determined as 30 nM; in test [2] (BGC-823 cells), 50 nM; in [3], 23 nM; in [4] (DU145 cells), 80 nM; in test [5], 18 nM; in test [6], 43 nM. For the same compound, the GI50 in test [7] (HT1080 cells) was 80 nM; in test [8] (Hela cells), 30 nM; in [9], 35 nM; in test [10] it was 31 nM; in test [11], 17 nM; in test [12], 33 nM. Besides, the GI50 worked out at 20 nM in test [13] (MCF-7 cells); 63 nM in test [14]; 10 nM in test [15] (MOLT-4 cells); 65 nM in [16]; 50 nM in test [17] (PANC-1 cells); 45 nM in test [18]. Besides, the concentration for 50% growth inhibition (GI50) was 20 nM in [19] (U937 cells) and 30 nM in test [20] (lncap cells).
